The source of these data is ChEMBL document CHEMBL4382239, “Pharmaceutical significance of azepane based motifs for drug discovery: A critical review” (Eur J Med Chem, 2019).

Assay [1] has as its system Staphylococcus aureus. Put plainly: Antibacterial activity against Staphylococcus aureus. The class given is functional.
The target of assay [2] is T1, Beta-galactosidase (Homo sapiens, UniProt P16278).
T1 sequence (P16278 whole entry): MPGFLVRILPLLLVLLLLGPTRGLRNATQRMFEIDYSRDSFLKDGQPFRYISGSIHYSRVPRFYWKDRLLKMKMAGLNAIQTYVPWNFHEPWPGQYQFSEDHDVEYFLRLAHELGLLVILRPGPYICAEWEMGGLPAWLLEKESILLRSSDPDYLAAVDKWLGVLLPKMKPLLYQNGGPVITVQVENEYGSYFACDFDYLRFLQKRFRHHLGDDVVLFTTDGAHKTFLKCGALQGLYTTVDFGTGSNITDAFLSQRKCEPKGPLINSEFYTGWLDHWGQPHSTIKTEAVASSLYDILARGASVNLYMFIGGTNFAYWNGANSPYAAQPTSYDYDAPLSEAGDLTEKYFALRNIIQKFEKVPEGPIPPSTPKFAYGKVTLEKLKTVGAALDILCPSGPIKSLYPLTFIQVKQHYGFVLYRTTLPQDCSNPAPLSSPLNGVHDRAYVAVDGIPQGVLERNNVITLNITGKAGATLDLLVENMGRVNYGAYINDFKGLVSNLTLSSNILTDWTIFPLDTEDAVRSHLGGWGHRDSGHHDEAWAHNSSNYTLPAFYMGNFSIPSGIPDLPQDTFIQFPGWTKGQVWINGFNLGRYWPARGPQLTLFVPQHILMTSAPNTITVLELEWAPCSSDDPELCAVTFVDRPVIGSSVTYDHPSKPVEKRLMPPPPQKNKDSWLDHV
Nature of the assay: Inhibition of beta-galactosidase (unknown origin).

Another assay concerns Micrococcus luteus. Nature of the assay: Antibacterial activity against Micrococcus luteus ATCC 4698 incubated for 16 to 18 hrs by serial plate dilution method. Type of assay: functional.
Assay [3] relates to Staphylococcus aureus. Nature of the assay: Antibacterial activity against Staphylococcus aureus ATCC 25923 incubated for 16 to 18 hrs by serial plate dilution method. Type of assay: functional.
Another assay concerns Bacillus subtilis. Nature of the assay: Antibacterial activity against Bacillus subtilis incubated for 16 to 18 hrs by serial plate dilution method. The class given is functional.
Another assay deals with Escherichia coli. Nature of the assay: Antibacterial activity against Escherichia coli DH52 incubated for 16 to 18 hrs by serial plate dilution method. Type of assay: functional.
The test system of another assay is Salmonella typhi. Put plainly: Antibacterial activity against […] incubated for 16 to 18 hrs by serial plate dilution method. The conditions noted are these: Salmonella enterica. Type of assay: functional, Salmonella enterica subsp. enterica serovar Typhi.
Another assay has as its system Shigella dysenteriae. Put plainly: Antibacterial activity against Shigella dysenteriae incubated for 16 to 18 hrs by serial plate dilution method. Type of assay: functional.
The test system of another assay is Pseudomonas aeruginosa. Put plainly: Antibacterial activity against Pseudomonas aeruginosa incubated for 16 to 18 hrs by serial plate dilution method. The class given is functional.
Assay [4] addresses T2, Beta-galactosidase (Aspergillus oryzae, UniProt B7VU80).
T2 sequence (B7VU80 whole entry): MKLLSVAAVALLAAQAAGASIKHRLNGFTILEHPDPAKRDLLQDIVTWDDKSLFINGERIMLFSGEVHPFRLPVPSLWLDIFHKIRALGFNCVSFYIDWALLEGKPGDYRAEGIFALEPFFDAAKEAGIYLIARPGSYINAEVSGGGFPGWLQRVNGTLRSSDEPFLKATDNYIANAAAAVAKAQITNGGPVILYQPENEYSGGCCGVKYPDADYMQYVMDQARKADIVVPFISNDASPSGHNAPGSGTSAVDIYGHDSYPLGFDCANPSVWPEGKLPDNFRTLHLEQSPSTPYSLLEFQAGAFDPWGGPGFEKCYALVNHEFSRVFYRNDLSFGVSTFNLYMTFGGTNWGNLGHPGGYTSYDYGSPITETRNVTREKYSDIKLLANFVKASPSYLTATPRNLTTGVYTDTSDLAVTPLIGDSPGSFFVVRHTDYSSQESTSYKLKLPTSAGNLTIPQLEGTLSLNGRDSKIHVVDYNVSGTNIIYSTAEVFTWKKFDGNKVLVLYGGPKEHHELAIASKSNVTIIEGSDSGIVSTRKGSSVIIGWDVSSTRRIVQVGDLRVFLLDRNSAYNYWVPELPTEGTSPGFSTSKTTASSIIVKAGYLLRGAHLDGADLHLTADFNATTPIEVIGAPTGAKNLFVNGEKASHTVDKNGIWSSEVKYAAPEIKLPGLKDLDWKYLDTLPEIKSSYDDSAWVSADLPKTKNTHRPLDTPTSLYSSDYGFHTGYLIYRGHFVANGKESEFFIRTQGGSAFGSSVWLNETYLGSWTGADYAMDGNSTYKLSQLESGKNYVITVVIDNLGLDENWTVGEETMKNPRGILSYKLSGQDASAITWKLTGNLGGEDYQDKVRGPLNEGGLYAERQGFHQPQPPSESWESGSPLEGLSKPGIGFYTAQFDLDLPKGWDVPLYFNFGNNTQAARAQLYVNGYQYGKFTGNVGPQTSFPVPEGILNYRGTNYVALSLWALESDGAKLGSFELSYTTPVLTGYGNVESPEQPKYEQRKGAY
Nature of the assay: Inhibition of Aspergillus oryzae beta-galactosidase.

The species entered for a further assay is Bos taurus. Put plainly: Competitive inhibition of bovine epididymis alpha-L-fucosidase at 1 mM relative to control.
The nature of assay [5]: Competitive inhibition of bovine epididymis alpha-L-fucosidase. Details: species or system Bos taurus.
The next assay deals with Rattus norvegicus. Put plainly: Anticonvulsant activity in Wistar rat assessed as protection against MES-induced seizures at 15 mg/kg dosed via gastric tube. Type of assay: functional.
A further assay concerns the target Alpha-galactosidase (Coffea arabica, UniProt Q42656). Put plainly: Inhibition of green coffee bean alpha-galactosidase.
A short description of assay [6]: Inhibition of 6His-tagged Mycobacterium tuberculosis inorganic pyrophosphatase using tetrasodium PPi as substrate after 8 mins by malachite green dye-based colorimetric analysis.
The next assay deals with HCT-116. Put plainly: Cytotoxicity against human HCT116 cells. Type of assay: functional.
The subject of the next assay is HT-29. Put plainly: Cytotoxicity against human HT-29 cells. Type of assay: functional.
In a further assay the test system is MCF7. Put plainly: Cytotoxicity against human MCF7 cells. Type of assay: functional.
The subject of a further assay is Prunus dulcis. Put plainly: Competitive inhibition of almond beta-glucosidase at 1 mM relative to control.
The nature of assay [7]: Competitive inhibition of almond beta-glucosidase. More on the design: species or system Prunus dulcis.
Assay [8] concerns the target Protein farnesyltransferase (Homo sapiens, UniProt P49354+P49356). Nature of the assay: Inhibition of human recombinant FTase using [3H]FPP as substrate after 15 mins by scintillation counting analysis. The class given is protein-complex assay.

Molecules are shown by their SMILES. Converted amounts (≈) assume the structure as drawn.

Sequence of Alpha-galactosidase (Q42656 whole entry): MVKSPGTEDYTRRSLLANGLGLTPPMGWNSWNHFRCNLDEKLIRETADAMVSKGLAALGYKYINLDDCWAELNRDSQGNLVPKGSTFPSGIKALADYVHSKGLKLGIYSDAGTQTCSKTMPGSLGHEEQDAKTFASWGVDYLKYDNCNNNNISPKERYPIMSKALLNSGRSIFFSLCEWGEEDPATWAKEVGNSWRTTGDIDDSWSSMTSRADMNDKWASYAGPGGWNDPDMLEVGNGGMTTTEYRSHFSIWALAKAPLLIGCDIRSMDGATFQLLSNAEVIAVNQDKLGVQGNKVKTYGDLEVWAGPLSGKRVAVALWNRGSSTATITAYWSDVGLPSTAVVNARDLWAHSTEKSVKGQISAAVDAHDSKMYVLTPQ

Turning to `NC[C@H]1O[C@H](O[C@H]2C[C@H](CO)NCC[C@H]2N)[C@H](N)[C@@H](O)[C@@H]1O`, in the assay with Staphylococcus aureus [1], the MIC came out at 32 µg/mL (≈ 99.9 µM).
Same read-out and setting: the same measure for `NC[C@H]1O[C@H](OC2C[C@H](CO)NCC[C@@H]2N)[C@H](N)[C@@H](O)[C@@H]1O` (stereo partly drawn): 64 µg/mL (≈ 200 µM).
As for `CCCC[C@@H]1C[C@@H](O)[C@@H](O)[C@@H](O)CN1`, the IC50 against Beta-galactosidase [2] amounted to 3 µM.
In the case of `COC(=O)C1CCCCN(c2ccccn2)C1C(=O)OC` (stereo not drawn), the MIC against Micrococcus luteus, with Staphylococcus aureus [3], against Bacillus subtilis, against Escherichia coli, in the assay on Salmonella typhi and against Shigella dysenteriae was 1 to 16 µg/mL (≈ 3.42 to 54.7 µM) each time. In the assay on Pseudomonas aeruginosa, this compound came in with an MIC of 1 to 16 µg/mL (≈ 3.42 to 54.7 µM).
On Beta-galactosidase [4], `O=C(O)C[C@H]1NC[C@@H](O)[C@@H](O)[C@H](O)[C@H]1O` yielded an IC50 of 215 µM.
As for `O=C(O)[C@H]1CNC[C@@H](O)[C@H](O)[C@H]1O`, in the assay listed under Bos taurus, the inhibition was 99%. The same compound displayed a Ki in assay [5] of 41 µM.
With `NC(=O)N1c2ccccc2C/C(=N\O)c2ccccc21`, the Activity with Rattus norvegicus is recorded as 90%.
On Alpha-galactosidase, `OC[C@H]1NC[C@H](O)[C@H](O)[C@@H](O)[C@@H]1O` had a Ki of 2.2 µM.
In assay [6], `c1ccc(-n2cccc2-c2nc(N3CC3)nc(N3CC3)n2)cc1` had an IC50 of 130 µM.
With `CN(C)c1nc(-c2cccn2-c2ccccc2)nc(N(C)C)n1`, the IC50 in assay [6] worked out at 540 µM.
In the case of `CC(C)O[C@H]1[C@H](OC(C)C)[C@H](O)CN(Cc2ccc(OCCCOc3ccc(CN4C[C@@H](O)[C@@H](OC(C)C)[C@H](OC(C)C)[C@H](O)C4)cc3)cc2)C[C@H]1O`, the GI50 with HCT-116 is 6 µM; with HT-29, 23 µM; in the assay on MCF7, 24 µM.
In turn, `C[C@@H]1CNC[C@@H](O)[C@H](O)[C@H]1O` displayed an inhibition in the assay with Prunus dulcis of 100%. This compound yielded a Ki in [7] of 2.5 µM.
In turn, `O=C(O)C[C@H]1NC[C@@H](O)[C@H](O)[C@H](O)[C@H]1O` registered an IC50 on Beta-galactosidase [4] of 21 µM.
Consider `COC(=O)C1CCCCN(c2ccc(Cl)cc2)C1C(=O)OC` (stereo not drawn), for which the MIC in the assay with Micrococcus luteus, against Staphylococcus aureus [3], against Bacillus subtilis, against Escherichia coli, against Salmonella typhi and in the assay on Shigella dysenteriae was 2 to 32 µg/mL (≈ 6.14 to 98.2 µM) throughout. This compound also returned an MIC against Pseudomonas aeruginosa of 2 to 32 µg/mL (≈ 6.14 to 98.2 µM).
Consider `CCC1CCCN(C)C(=O)[C+]1c1cccc(Oc2cc(C(C)(N)c3cncn3C)ccc2C#N)c1` (stereo not drawn), for which the IC50 in assay [8] was determined as 0.06 nM.
Consider `O=C(O)C[C@@H]1NC[C@H](O)[C@H](O)[C@H](O)[C@H]1O`, for which half-maximal inhibition against Beta-galactosidase [4] (IC50) was put at 279 µM.
As for `CCCCN(CCCC)c1nc(-c2cccn2CCc2ccccc2)nc(N2CCCCCC2)n1`, the IC50 in assay [6] is 23 µM.
